Results on 14 molecules are retold here after patent US5795907A, “Gastin and CCK receptor ligands” (James Black Foundation Limited, priority 1994, dated 1998).

One assay concerns the target T1, CCKB receptor (Mus musculus, UniProt P56481).
T1 construct: The cortex was dissected, weighed and homogenised in 40ml ice-cold buffer; tissue Charles River (supplier of the CD1 mice); host or cells: cerebral cortex membranes of male CD1 mice
T1 sequence (P56481 1-453): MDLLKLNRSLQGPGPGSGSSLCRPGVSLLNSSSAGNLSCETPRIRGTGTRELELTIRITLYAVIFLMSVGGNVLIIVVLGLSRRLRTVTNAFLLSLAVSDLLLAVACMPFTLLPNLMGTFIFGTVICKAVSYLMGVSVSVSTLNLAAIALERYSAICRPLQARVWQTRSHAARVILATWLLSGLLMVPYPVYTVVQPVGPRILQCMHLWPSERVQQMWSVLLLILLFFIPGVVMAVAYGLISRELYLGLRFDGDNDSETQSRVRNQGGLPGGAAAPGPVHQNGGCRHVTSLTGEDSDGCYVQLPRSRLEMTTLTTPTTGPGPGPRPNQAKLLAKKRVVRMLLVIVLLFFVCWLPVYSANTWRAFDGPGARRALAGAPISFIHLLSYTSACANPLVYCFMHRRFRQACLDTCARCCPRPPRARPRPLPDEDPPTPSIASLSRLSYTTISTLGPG
Kind of assay: CCKB receptor radioligand binding assay in mouse cortical membranes ([125I]-CCK8S). The note with it: [125I]-CCK8S 200 pM, 150 min at 21±3°; for Ki: read-out: CCKB pKi (converted). The essentials:
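This was competition binding with tracer [125I]-CCK8S (200 pM solution added), run for 150 min at 21±3° on male CD1 mouse cortex membranes in pH 7.2 HEPES buffer with bacitracin. Filtration then gamma counting gave bound radioactivity. L-365,260 set the non-specific level.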

The next assay deals with T2, gastrin (Rattus norvegicus, UniProt P30553).
T2 construct: The stomach was lowered into a jacketed organ bath containing 40 ml of buffered solution; from tissue; host or cells: isolated perfused whole stomach of immature rats (ca. 21 days old)
T2 sequence (P30553 1-452): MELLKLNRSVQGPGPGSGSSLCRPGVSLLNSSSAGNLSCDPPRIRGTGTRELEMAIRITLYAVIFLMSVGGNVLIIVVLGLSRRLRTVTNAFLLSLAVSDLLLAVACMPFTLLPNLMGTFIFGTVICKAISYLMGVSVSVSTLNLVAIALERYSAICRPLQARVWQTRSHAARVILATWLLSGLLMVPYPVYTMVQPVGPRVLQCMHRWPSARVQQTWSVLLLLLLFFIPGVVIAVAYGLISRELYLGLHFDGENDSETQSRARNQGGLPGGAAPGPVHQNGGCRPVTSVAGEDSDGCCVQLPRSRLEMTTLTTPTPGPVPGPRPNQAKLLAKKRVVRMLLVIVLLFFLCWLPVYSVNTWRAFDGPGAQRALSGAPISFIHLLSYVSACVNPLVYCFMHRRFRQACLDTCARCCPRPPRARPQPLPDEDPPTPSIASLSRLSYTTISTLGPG
Kind of assay: gastrin antagonist activity in an immature rat stomach assay (pentagastrin-stimulated acid secretion). The conditions noted are these: cumulative pentagastrin dose-response curves after 60 min with drug; for Kb: read-out: Gastrin pKB (converted). In a few lines: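 Isolated lumen-perfused immature rat stomach (33-50 g, ca. 21 days) in 37° organ bath with 3×10^-8 M 5-methylfurmethide; acid secretion read by pH electrode in perfusate. Compound added to serosal bath after 120 min stabilisation; cumulative pentagastrin dose-response curves begun 60 min later and analysed by the Black et al. method.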

Another assay has as its target T3, CCKA (Cavia porcellus, UniProt Q63931).
T3 construct: The pancreatata were homogenised in 40 ml ice-cold HEPES buffer using a polytron; from tissue; host or cells: pancreas membranes of male Dunkin Hartley guinea-pigs
T3 sequence (Q63931 1-430): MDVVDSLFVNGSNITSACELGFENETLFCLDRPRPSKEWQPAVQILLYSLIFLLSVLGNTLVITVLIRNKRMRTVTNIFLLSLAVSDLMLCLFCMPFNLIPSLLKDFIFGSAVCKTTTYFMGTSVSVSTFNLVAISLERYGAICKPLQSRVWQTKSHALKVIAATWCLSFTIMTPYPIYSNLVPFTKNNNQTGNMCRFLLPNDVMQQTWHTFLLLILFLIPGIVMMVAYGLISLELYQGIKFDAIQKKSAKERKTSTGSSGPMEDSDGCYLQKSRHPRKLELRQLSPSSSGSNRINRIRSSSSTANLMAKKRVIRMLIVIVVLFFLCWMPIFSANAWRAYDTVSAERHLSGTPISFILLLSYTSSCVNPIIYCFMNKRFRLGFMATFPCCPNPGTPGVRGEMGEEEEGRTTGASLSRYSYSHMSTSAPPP
Kind of assay: CCKA radioligand binding assay in guinea-pig pancreas membranes ([125I]-CCK8(S)). The note with it: PD134,308 present, 150 minutes at 21±3°; for Ki: read-out: CCKA pKi (converted). The essentials: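 Competition for [125I]-CCK8(S) (added as […] solution) ran for 150 min at 21±3° in HEPES pH 7.2. Membranes came from male guinea-pig pancreas at 1 mg/ml original wet weight, with 0.375 μM PD134,308 in the suspension. Filter-bound counts were gamma-counted; 100 nM L-364,718 (added solution) defined non-specific binding.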

As to `COC(=O)c1cc(NC(=O)[C@H](Cc2ccccc2)NC(=O)c2cc3[nH]cnc3cc2C(=O)NCC23CC4CC(CC(C4)C2)C3)cc(C(=O)OC)c1` [Example 81, 5-(1S-(3,5-dimethoxycarbonylphenylaminocarbonyl)-2-phenylethylaminocarbonyl)-6-(1-adamantane-methylaminocarbonyl)-benzimidazole], the Ki is 794 nM on CCKB receptor and 3160 nM at CCKA. The Kb on gastrin is 126 nM.
For `Cc1ccc(C(=O)O)cc1NC(=O)[C@H](Cc1ccccc1)NC(=O)c1cc2[nH]cnc2cc1C(=O)NCC12CC3CC(CC(C3)C1)C2` [Example 82, 5-(1S-(2-methyl-5-carboxyphenylaminocarbonyl)-2-phenylethylaminocarbonyl)-6-(1-adamantanemethylaminocarbonyl)-benzimidazole], the Ki at CCKB receptor is 100 nM; at CCKA, 2000 nM. Also, the Kb at gastrin was 126 nM.
The matching figures for `O=C(NCC12CC3CC(CC(C3)C1)C2)c1cc2nc[nH]c2cc1C(=O)N[C@@H](Cc1ccccc1)C(=O)Nc1cccc(-c2nn[nH]n2)c1` [Example 83, 5-(1S-(3-tetrazolylphenylaminocarbonyl)-2-phenylethylaminocarbonyl)-6-(1-adamantanemethylaminocarbonyl)-benzimidazole]: 15.8 nM, 398 nM and 63.1 nM.
On to `CN(C(=O)c1cc2[nH]cnc2cc1C(=O)NCC12CC3CC(CC(C3)C1)C2)[C@@H](Cc1ccccc1)C(=O)Nc1cc(C(=O)O)cc(C(=O)O)c1` [Example 86, 5-(1S-(3,5-dicarboxyphenylaminocarbonyl)-2-30 phenylethyl-(N-methylamino)-carbonyl)-6-(1-adamantanemethylaminocarbonyl)-benzimidazole], for which the Ki at CCKB receptor was 31.6 nM. The Kb at gastrin is 20 nM. The “CCKA pKi” value on CCKA was 5.0.
Regarding `O=C(O)c1cc(NC(=O)[C@H](Cc2ccccc2F)NC(=O)c2cc3cc[nH]c3cc2C(=O)NCC23CC4CC(CC(C4)C2)C3)cc(C(=O)O)c1` [Example 87, 5-(1S-(3,5-dicarboxyphenylaminocarbonyl)-2-(2-fluorophenyl)ethylaminocarbonyl)-6-(1-adamantanemethylaminocarbonyl)-indole], the Ki is 0.794 nM at CCKB receptor and 3160 nM on CCKA. The Kb at gastrin is 0.251 nM.
In the case of `O=C(O)c1cc(NC(=O)[C@H](Cc2ccccc2F)NC(=O)c2cc3[nH]ccc3cc2C(=O)NCC23CC4CC(CC(C4)C2)C3)cc(C(=O)O)c1` [Example 88, 6-(1S-(3,5-dicarboxyphenylaminocarbonyl)-2-(2-25 fluorophenyl)ethylaminocarbonyl)-5-(1-adamantaneinetnyl-aminocarbonyl)-indole], the Ki on CCKB receptor was 5.01 nM; at CCKA, 2510 nM. The Kb on gastrin was 2.51 nM.
In the case of `O=C(O)c1cccc(NC(=O)[C@H](Cc2ccccc2)NC(=O)c2cc3cc[nH]c3cc2C(=O)NCC23CC4CC(CC(C4)C2)C3)c1` [Example 90, 5-(1S-(3-carboxyphenylaminocarbonyl)-2-phenylethylaminocarbonyl)-6-(1-adamantanemethylaminocarbonyl)-indole], the “CCKB pKi” value on CCKB receptor is 8.2. Moreover, at gastrin, the “Gastrin pKB” value came to 8.0. Also, on CCKA, the “CCKA pKi” value is 5.3.
In the case of `O=C(O)CNC(=O)[C@@H](Cc1ccccc1)NC(=O)c1cc2cc[nH]c2cc1C(=O)NCC12CC3CC(CC(C3)C1)C2` [Example 91, 5-(1R-(carboxymethylaminocarbonyl)-2-phenylethylaminocarbonyl)-6-(1-adamantanemethylaminocarbonyl)-indole], the “CCKB pKi” value at CCKB receptor is reported as 7.4. For the same molecule, the “Gastrin pKB” value at gastrin is listed as 8.0. In addition, the “CCKA pKi” value on CCKA stood at 5.3.
For `O=C(NCC12CC3CC(CC(C3)C1)C2)c1cc2[nH]ccc2cc1C(=O)N[C@@H](Cc1ccccc1)C(=O)Nc1cc(NS(=O)(=O)C(F)(F)F)cc(NS(=O)(=O)C(F)(F)F)c1` [Example 93, 5-(1S-(3,5-di-trifluoromethylsulphonylaminophenylaminocarbonyl)-2-phenylethylaminocarbonyl)-6-(1-adamantanemethylaminocarbonyl)-indole], on CCKB receptor, the “CCKB pKi” value was 8.1. Further, the “Gastrin pKB” value at gastrin came to 7.7. Also, on CCKA, the “CCKA pKi” value is recorded as 5.6.
The matching figures for `CC(C)(C)NS(=O)(=O)c1cc(NC(=O)[C@H](Cc2ccccc2)NC(=O)c2cc3cc[nH]c3cc2C(=O)NCC23CC4CC(CC(C4)C2)C3)cc(S(=O)(=O)NC(C)(C)C)c1` [Example 95, 5-(1S-(3,5-di-tert-butylaminosulphonylphenylaminocarbonyl)-2-phenylethylaminocarbonyl)-6-(1-adamantanemethylaminocarbonyl)-indole]: 5.9, 5.9 and 5.8.
Regarding `O=C(NCC12CC3CC(CC(C3)C1)C2)c1cc2[nH]ccc2cc1C(=O)N[C@@H](Cc1ccccc1)C(=O)Nc1cccc(-c2nn[nH]n2)c1` [Example 100, 5-(1S-(3-tetrazolylphenylaminocarbonyl)-2-phenylethylaminocarbonyl)-6-(1-adamantanemethylaminocarbonyl)-indole], the Ki on CCKB receptor is 12.6 nM; at CCKA it was 398 nM. In addition, on gastrin, the Kb is 31.6 nM.
With `CN(O)C(=O)c1cc(NC(=O)[C@H](Cc2ccccc2)NC(=O)c2cc3cc[nH]c3cc2C(=O)NCC23CC4CC(CC(C4)C2)C3)cc(C(=O)N(C)O)c1` [Example 103, 5-(1S-(3,5-dihydroxy-N-(methyl)aminocarbonylphenylaminocarbonyl)-2-phenylethylaminocarbonyl)-6-(1-adamantanemethylaminocarbonyl)-indole], the “CCKB pKi” value on CCKB receptor was 7.0. The “Gastrin pKB” value at gastrin is listed as 7.8. The “CCKA pKi” value on CCKA is reported as 5.2.
Regarding `O=C(NCC12CC3CC(CC(C3)C1)C2)c1cc2[nH]ccc2cc1C(=O)N[C@@H](Cc1ccccc1)C(=O)Nc1cc(-c2nn[nH]n2)cc(-c2nn[nH]n2)c1` [Example 104, 5-(1S-(3,5-ditetrazolylphenylaminocarbonyl)-2-phenylethylaminocarbonyl)-6-(1-adamantanemethylaminocarbonyl)-indole], the figures for the Ki on CCKB receptor and at CCKA were 1.26 nM and 316 nM, respectively. Besides, the Kb on gastrin is 2.51 nM.
The matching figures for `O=C(NCC12CC3CC(CC(C3)C1)C2)c1cc2cc[nH]c2cc1C(=O)N[C@@H](Cc1ccccc1)C(=O)Nc1cc(-c2nn[nH]n2)cc(-c2nn[nH]n2)c1` [Example 105, 6-(1S-(3,5-ditetrazolylphenylaminocarbonyl)-2-phenylethylaminocarbonyl)-5-(1-adamantanemethylaminocarbonyl)-indole]: 5.01 nM, 158 nM and 3.16 nM.
